Laboratory results reported in patent US7678791B2, “Nitroheteroaryl-containing rifamycin derivatives” (Cumbre IP Ventures, L.P., priority 2006, dated 2010).
Converted amounts (≈) assume the structure as drawn.

Test system: Mycobacterium tuberculosis H37Rv (rif-resistant)
Assay: microbe, parasite or virus in culture
Format: cell-based

CO[C@H]1/C=C/O[C@@]2(C)Oc3c(C)c(O)c4c(c3C2=O)C2=NC3(CCN(CCn5c([N+](=O)[O-])cnc5C)CC3)NC2=C(NC(=O)/C(C)=C\C=C\[C@H](C)[C@H](O)[C@@H](C)[C@@H](O)[C@@H](C)[C@H](OC(C)=O)[C@@H]1C)C4=O [Example 1, 4-Deoxy-3,4-[2-spiro-[1-[2-(2-methyl-5-nitro-imidazol-1-yl)ethyl]-piperidin-4-yl]]-(1H)-imidazo-(2,5-dihydro)rifamycin S] was tested, and the “antimicrobial activity in words, rifampin-resistant M. tuberculosis” value was “retains activity” and the MIC (Mycobacterium tuberculosis, H37RV) was 5 µg/mL (≈ 5.3 µM).
